According to a melting point compilation (Tetko et al.; mined from patent text by program, amines drawn as free bases though some values may be those of a salt):

Row | SMILES | melting point
1 | O=C(O)c1ccc(N2C(=O)c3ccc([N+](=O)[O-])cc3C2=O)cc1 | 331 to 332 °C
2 | Cc1nc2c(OCc3c(Cl)ccc(S(=O)(=O)N4CCC[C@H]4C(=O)NCc4ccc(C=NN)cc4)c3Cl)cccn2c1Br | 124 °C
3 | Cc1cc(NC(=O)c2cccnc2Cl)[nH]n1 | > 300 °C
4 | COc1ccccc1Sc1c(Cl)nc(C)nc1Cl | 140 °C
5 | CN(C)c1nn(-c2cc(F)c(C#N)cc2F)c(=O)n1C | 131 to 133 °C
6 | CC(=O)SCC(=O)c1cc(S(=O)(=O)N(C)C)ccc1Cl | 84 to 88 °C
7 | CC1Cc2cc3c(cc2C(c2ccc([N+](=O)[O-])cc2)=NN1C1=NC(=O)CS1)OCO3 (centres undefined) | 218 to 220 °C
8 | CC1(C)Cc2sc3c(c2C1)CCC3=O | 60 to 62 °C
9 | Cc1ccc(-c2nc(O)cc(O)n2)cc1 | 314 °C
10 | O=[N+]([O-])c1ccc(-c2nc(-c3ccco3)no2)c(Cl)c1 | 124 to 125 °C
11 | O=[N+]([O-])c1cnc2ccc(-c3ccccc3)cc2c1Nc1ccccc1Br | 198 to 204 °C
12 | Cc1cccc(NC(=O)NC2N=C(C(C)C)c3cccc(C)c3N(CC(=O)C3CCCCC3)C2=O)c1 (centres undefined) | 142 to 146 °C
13 | Cn1nc(-c2nc(S(C)(=O)=O)c(N)nc2-c2ccccc2)ccc1=O | 231 to 233 °C
14 | O=C(SSCCSSC(=O)N1CCOCC1)N1CCOCC1 | 178 to 179 °C
15 | COc1ccc(C(=O)Nc2ccc(F)c(F)c2)cc1NC(=S)Nc1cccc(C(=O)O)c1 | 221 to 222 °C
16 | CNC(=O)CN1CCc2cc(Nc3ncc(Cl)c(Nc4cc(C(N)=O)ccc4OC)n3)c(OC)cc2CC1 | 225 to 236 °C
17 | COC(=O)c1cc(=O)c2cc(OC)c(=O)ccc2n1C | 181 to 183 °C
18 | NS(=O)(=O)c1cc2c(Cl)c(N3CCOCC3)ccc2s1 | 195 to 199 °C
19 | COc1ccc(C2(C#Cc3ccc(Cl)cc3)CCC(=O)CC2)cc1OC1CCCC1 | 104 to 105 °C
20 | CC(=O)Nc1ccc(C=CC2CSC(=O)NN2)cc1 (centres undefined) | 235 to 240 °C
21 | COc1cccc(C=CC(=O)C2C(=O)CCC2=O)c1O | 198 to 200 °C
22 | COC(CNc1nc(C)nc2cccc(C)c12)OC | 48 to 49 °C
23 | CN(CCCCCCC(=O)O)c1cnc(-c2ccccc2)c(-c2ccccc2)n1 | 114 to 118 °C
24 | CCCc1c(OCC2Cc3cc(CC(=O)OC)cc(F)c3O2)ccc(C(C)=O)c1O (centres undefined) | 80 to 82 °C
25 | COc1ccc(-c2nc(C(F)(F)F)[nH]c2-c2ccc(S(C)(=O)=O)cc2)cc1OC | 221 to 224 °C

Row | SMILES | melting point
26 | COc1c(C)cnc(CO)c1C | 49 to 51 °C
27 | CCN1CCC(NC(=O)Cn2c(-c3ccc(Br)cc3)nc3cccnc32)C1 (centres undefined) | 202 to 204 °C
28 | COC(=O)[C@H](C)OC(=O)c1cc(-n2c(=O)cc(C(F)(F)F)n(C)c2=O)ccc1Cl | 59 to 60 °C
29 | CNc1nc(-c2ccccc2)c(CCOC)c2ncnn12 | 133 to 136 °C
30 | CCOC(=O)c1nc2ccc(CO)cc2n1OC | 110 °C
31 | CCc1ccc(CCc2ccccc2NC=O)nc1 | 62 to 63.5 °C
32 | CC(=O)Nc1ccc2c(c1)nc(/C=C/c1ccccc1)n2-c1ccccn1 | 105 to 107 °C
33 | CN(C)CCc1cccc(OCCCCN2C(=O)c3ccccc3C2=O)c1 | 52 to 53 °C
34 | CC(C)OCC1(C(F)(F)F)c2cc(C#N)ccc2Nc2ncc(Br)cc21 (centres undefined) | 76 to 77 °C
35 | CC(C)N1CCN(C(=O)c2cc(N)cc(C(F)(F)F)c2)CC1 | 89 to 90 °C
36 | CCOC(=O)c1cnc(C)nc1NCc1ccc(-c2ccccc2-c2nnn[nH]2)cc1 | 121 to 123 °C
37 | Oc1ccc(Nc2ccn(-c3ccccc3)n2)cc1 | 147 to 148 °C
38 | CC(=O)c1ccc(-c2ccc(Cl)cc2)c([N+](=O)[O-])c1 | 103 to 105 °C
39 | Cc1cccc(C)c1NC(=O)CN1CCN(CCCC(c2ccc(F)cc2)c2ccc(F)cc2)CCN1 | 145 to 148 °C
40 | CC1(C)COC(=S)N(Cc2ccccc2N)C1 | 90.8 to 92.1 °C
41 | CCOC(=O)c1cn2c(cc(Br)c3ccccc32)n1 | 205 to 207 °C
42 | O=C1N(c2ccccc2Br)Cc2cnc(Nc3ccccc3)nc2N1CC1CCCCC1 | 200 to 202 °C
43 | CC1CCN(Cc2ccc(COc3cccc4c3CN(C3CCC(=O)NC3=O)C4=O)cc2)CC1 (centres undefined) | 189 to 191 °C
44 | Cc1n[nH]c2c1c(=O)n(-c1ccccc1)c1ncccc21 | > 300 °C
45 | Nc1c(Cl)cc(C(O)CNCCCCCCOCCCCCCc2cncnc2)cc1Cl (centres undefined) | 59 to 60 °C
46 | OCCCc1cc2c(cc1O)CCO2 | 103 to 104 °C
47 | O=C1C=c2c(c3c(c4[nH]c5ccccc5c24)Cc2ccccc2-3)=N1 | 275 to 280 °C
48 | CCCCCS(=O)(=O)NC(=O)OCc1ccc(OS(=O)(=O)CCC)cc1Oc1ncc(C(F)(F)F)cc1Cl | 86 to 89 °C
49 | CCOC(=O)c1cc2n(c1)CN(CCC#N)c1ccccc1-2 | 102 to 104 °C
